In patent US10584103B2 (Sanford Burnham Prebys Medical Discovery Institute, priority 2014, dated 2020):

What was measured:
[1] = system: neurotensin-deficient mice; conditions: cited from earlier work
NTR1 = NTR1 (Homo sapiens (Human), UniProt P30989); assay: NTR1 dose response, high-content imaging assay in NTR1-U2OS cells (beta-arrestin-GFP); format: cell-based
Excerpt: The cell lines utilized in the high-content imaging assays, which include the NTR1-, NTR2-, and GPR35-U2OS osteosarcomas, were obtained from the laboratory of Dr. Lawrence Barak at the Duke University Medical Center. The media used in the culture of the cell lines, as well as the assays themselves, consisted of Minimum Essential Medium (15-010-CM) and L-glutamine (25-005-CL) from Cellgro/Mediatech (Manassas, Va.), fetal bovine serum (SH30396.03) from Hyclone (Logan, Utah), penicillin-streptomycin solution (PS-20) from Omega Scientific in Tarzana, Calif., G418 (ant-gn-1) from Invivogen (San Diego, Calif.), and zeocin (R250-01) from Invitrogen (Carlsbad, Calif.). Cell lines were cultured in T225 tissue culture flasks (431082) supplied by Corning (Corning, N.Y.). Additional reagents employed include Dulbecco's Phosphate-Buffered Saline (DPBS) (21-031CV) from Cellgro/Mediatech, Trypsin-EDTA 0.05% (25300) from Invitrogen, paraformaldehyde (30528954) from Acros Organics (Geel, Belgium), Hoechst 33342 (H3570) from Invitrogen. The high-content assays were run in 1536-well plates (29326) supplied by Aurora Biotechnology (Poway, Calif.) and utilized aluminum plate seals (T592100) from E&K Scientific (Santa Clara, Calif.). […]

NTR1, sequence (P30989 whole entry, species assumed): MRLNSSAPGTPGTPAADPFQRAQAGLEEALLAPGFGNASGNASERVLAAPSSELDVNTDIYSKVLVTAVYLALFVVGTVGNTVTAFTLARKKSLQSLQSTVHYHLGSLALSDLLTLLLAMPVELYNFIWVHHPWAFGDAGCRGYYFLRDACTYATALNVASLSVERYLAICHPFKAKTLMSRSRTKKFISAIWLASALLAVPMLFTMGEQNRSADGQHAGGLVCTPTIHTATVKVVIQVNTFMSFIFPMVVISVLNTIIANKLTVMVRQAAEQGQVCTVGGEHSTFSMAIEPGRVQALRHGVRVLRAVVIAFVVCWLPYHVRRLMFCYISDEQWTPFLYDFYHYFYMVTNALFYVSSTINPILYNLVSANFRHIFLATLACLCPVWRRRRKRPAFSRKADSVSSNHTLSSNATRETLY

EC50 (NTR1) | SMILES | augmentation of PPI [1]
– | CN1CCN(C2=Nc3cc(Cl)ccc3Nc3ccccc32)CC1 [clozapine] | augmented PPI normally
et | C#Cc1nc(N2CCC(c3ccccc3OC)CC2)c2cc(N(C)CCO)ccc2n1 [Example 192, 2-({2-Ethynyl-4-[4-(2-methoxy-phenyl)-piperidin-1-yl]-quinazolin-6-yl}-methyl-amino)-ethanol] | –
– | O=C(CCCN1CCC(O)(c2ccc(Cl)cc2)CC1)c1ccc(F)cc1 [haloperidol] | ineffective
– | OCCOCCN1CCN(C2=Nc3ccccc3Sc3ccccc32)CC1 [quetiapine] | ineffective
